Data reported in US20050169984A1, “Pharmaceutical hard capsule containing inorganic substance” (DAIICHI SUNTORY PHARMA CO., LTD., priority 2004, published 2005).

Experiments:
[1] = background statement; cited from earlier work
[2] = Generation of Compound 2 on sealed non-contact storage of faropenem daloxate with hard gelatin capsule (HPLC peak area ratio); assay type: physicochemical
Excerpt: (drifting moisture) for 7 days, and observed for the change. 1, generation quantity of Compound 2 has increased and hard gelatin capsule has insolubilized after 3 days of preservation. From the result, it is confirmed that insolubilization of hard gelatin capsule is caused by low molecular, gaseous aldehyde-like substance generated from degradation of faropenem daloxate.
FIG. 2 is showing the testing condition of observation for change while faropenem daloxate is kept with hard gelatin capsule without any contact with the capsule in sealed glass container at 60° C. (drifting moisture) for 7 days.

Generation quantity of Compound 2 (%) ([2]; 60° C./drifting humidity/3 days): 0.02%
Generation quantity of Compound 2 (%) ([2]; 60° C./drifting humidity/5 days): 0.04%
Generation quantity of Compound 2 (%) ([2]; 60° C./drifting humidity/7 days): 0.07%
Structure (SMILES): Cc1oc(=O)oc1COC(=O)C1=C([C@H]2CCCO2)S[C@@H]2[C@@H]([C@@H](C)O)C(=O)N12 [faropenem daloxate, (5-methyl-2-oxo-1,3-dioxolene-4-yl)methyl (5R,6S)-6-[(R)-1-hydroxyethyl]-7-oxo-3-[(R)-2-tetrahydrofuryl]-4-thia-1-azabicyclo[3.2.0]hept-2-ene-2-carboxylate]
oral absorbability [1]: ≥ 70%
